The values that follow come from patent US8969386B2, “Modulators of CFTR” (Vertex Pharmaceuticals Incorporated, priority 2007, dated 2015).

The test has as its target T1, ΔF508-CFTR (Homo sapiens, UniProt P13569, DEL508-508).
T1 construct: expressed in transfected cells
Description: ΔF508-CFTR correction, membrane potential optical (FRET/VIPR) assay. Format: cell-based. The settings on record: NIH3T3 mouse fibroblasts stably expressing ΔF508-CFTR; for Emax: read-out: % Efficacy. An excerpt: Assays for Detecting and Measuring ΔF508-CFTR Correction Properties of Compounds
Membrane potential optical methods for assaying ΔF508-CFTR modulation properties of compounds
The optical membrane potential assay utilized voltage-sensitive FRET sensors described by Gonzalez and Tsien (See Gonzalez, J. E. and R. Y. Tsien (1995) “Voltage sensing by fluorescence resonance energy transfer in single cells” Biophys J 69(4): 1272-80, and Gonzalez, J. E. and R. Y. Tsien (1997) “Improved indicators of cell membrane potential that use fluorescence resonance energy transfer” Chem Biol 4(4): 269-77) in combination with instrumentation for measuring fluorescence changes such as the Voltage/Ion Probe Reader (VIPR) (See Gonzalez, J. E., K. Oades, et al. (1999) “Cell-based assays and instrumentation for screening ion-channel targets” Drug Discov Today 4(9): 431-439).
These voltage sensitive assays are based on the change in fluorescence resonant energy transfer (FRET) between the membrane-soluble, voltage-sensitive dye, DiSBAC2(3), and a fluorescent phospholipid, CC2-DMPE, which is attached to the outer leaflet of the plasma membrane and acts as a FRET donor. Changes in membrane potential (Vm) cause the negatively charged DiSBAC2(3) to redistribute across the plasma membrane and the amount of energy transfer from CC2-DMPE changes accordingly. The changes in fluorescence emission were monitored using VIPR™ II, which is an integrated liquid handler and fluorescent detector designed to conduct cell-based screens in 96- or 384-well microtiter plates.
1. Identification of Correction Compounds
To identify small molecules that correct the trafficking defect associated with ΔF508-CFTR; a single-addition HTS assay format was developed. The cells were incubated in serum-free medium for 16 hrs at 37° C. in the presence or absence (negative control) of test compound. As a positive control, cells plated in 384-well plates were incubated for 16 hrs at 27° C. to “temperature-correct” ΔF508-CFTR. The cells were subsequently rinsed 3× with Krebs Ringers solution and loaded with the voltage-sensitive dyes. To activate ΔF508-CFTR, 10 μM forskolin and the CFTR potentiator, genistein (20 μM), were added along with Cl^−-free medium to each well. The addition of Cl^−-free medium promoted Cl^− efflux in response to ΔF508-CFTR activation and the resulting membrane depolarization was optically monitored using the FRET-based voltage-sensor dyes.
NIH3T3 mouse fibroblasts stably expressing ΔF508-CFTR are used for optical measurements of membrane potential. The cells are maintained at 37° C. in 5% CO2 and 90% humidity in Dulbecco's modified Eagle's medium supplemented with 2 mM glutamine, 10% fetal bovine serum, 1×NEAA, β-ME, 1× pen/strep, and 25 mM HEPES in 175 cm^2 culture flasks. For all optical assays, the cells were seeded at 30,000/well in 384-well matrigel-coated plates and cultured for 2 hrs at 37° C. before culturing at 27° C. for 24 hrs for the potentiator assay. For the correction assays, the cells are cultured at 27° C. or 37° C. with and without compounds for 16-24 hours Electrophysiological Assays for assaying ΔF508-CFTR modulation properties of compounds

pEC50: −log10 of the molar value.

T1 sequence (P13569 with tags, fused parts or gaps DEL508-508): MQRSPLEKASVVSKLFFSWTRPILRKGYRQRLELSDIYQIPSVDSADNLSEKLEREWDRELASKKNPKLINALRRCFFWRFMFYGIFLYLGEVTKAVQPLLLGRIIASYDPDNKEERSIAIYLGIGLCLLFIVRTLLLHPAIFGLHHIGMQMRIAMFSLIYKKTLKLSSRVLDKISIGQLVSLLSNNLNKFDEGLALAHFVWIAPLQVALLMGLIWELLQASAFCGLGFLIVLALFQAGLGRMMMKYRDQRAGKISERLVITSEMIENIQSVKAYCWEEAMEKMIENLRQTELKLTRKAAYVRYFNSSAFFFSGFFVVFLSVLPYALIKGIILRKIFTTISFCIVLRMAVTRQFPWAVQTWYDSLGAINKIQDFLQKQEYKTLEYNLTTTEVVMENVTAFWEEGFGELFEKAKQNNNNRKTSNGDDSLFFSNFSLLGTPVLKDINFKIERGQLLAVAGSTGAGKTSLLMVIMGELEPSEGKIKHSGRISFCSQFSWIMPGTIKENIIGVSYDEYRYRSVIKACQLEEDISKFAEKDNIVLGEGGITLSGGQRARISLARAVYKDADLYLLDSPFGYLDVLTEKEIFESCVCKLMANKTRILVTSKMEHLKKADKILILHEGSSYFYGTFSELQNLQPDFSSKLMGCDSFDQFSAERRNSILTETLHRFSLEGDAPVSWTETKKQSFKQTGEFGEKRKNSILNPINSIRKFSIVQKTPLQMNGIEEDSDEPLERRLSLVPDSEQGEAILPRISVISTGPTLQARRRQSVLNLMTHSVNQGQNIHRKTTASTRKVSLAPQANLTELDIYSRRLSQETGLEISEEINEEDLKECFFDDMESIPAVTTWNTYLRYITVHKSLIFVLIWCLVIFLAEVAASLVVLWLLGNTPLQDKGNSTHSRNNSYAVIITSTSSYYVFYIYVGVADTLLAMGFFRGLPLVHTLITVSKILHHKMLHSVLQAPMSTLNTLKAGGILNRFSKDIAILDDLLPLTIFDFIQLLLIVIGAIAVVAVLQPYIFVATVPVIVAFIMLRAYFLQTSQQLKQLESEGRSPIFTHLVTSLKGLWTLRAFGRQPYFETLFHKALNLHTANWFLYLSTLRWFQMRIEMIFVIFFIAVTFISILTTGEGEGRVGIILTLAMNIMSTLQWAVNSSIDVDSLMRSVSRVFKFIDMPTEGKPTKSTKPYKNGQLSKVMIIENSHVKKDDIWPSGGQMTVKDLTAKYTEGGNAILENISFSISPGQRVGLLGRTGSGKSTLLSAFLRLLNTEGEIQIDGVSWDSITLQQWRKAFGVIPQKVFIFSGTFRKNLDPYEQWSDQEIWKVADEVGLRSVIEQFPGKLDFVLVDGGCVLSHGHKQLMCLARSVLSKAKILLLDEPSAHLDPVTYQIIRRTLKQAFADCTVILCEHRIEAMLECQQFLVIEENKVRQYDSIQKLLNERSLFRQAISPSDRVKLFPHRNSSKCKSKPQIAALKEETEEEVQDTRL

As usually defined, the pEC50 is the EC50 on a negative log10 scale, so that one unit is a factor of ten. Take `Cc1ccc(NC(=O)C2(c3ccc4c(c3)OCC4)CC2)nc1-c1ccc(=O)[nH]c1` [Compound 99]: the pEC50 was > 5.70 and the Emax is > 100%.

On to `O=C(Nc1cccc(-c2ccc[nH]c2=O)n1)C1(c2ccc3c(c2)OC(F)(F)O3)CC1` [Compound 51], for which the pEC50 is > 5.70 and the Emax was > 100%.

As to `Cc1ccc(NC(=O)C2(c3ccc4c(c3)CCO4)CC2)nc1-c1cc[nH]c(=O)c1` [Compound 80], the pEC50 is > 5.70 and the Emax lay in the range of 50 to 100%.

With `COc1ncc(-c2nc(NC(=O)C3(c4ccc5c(c4)OC(F)(F)O5)CC3)ccc2C)cc1C(=O)O` [Compound 53], the pEC50 is > 5.70 and the Emax was > 100%.

Regarding `Cc1cc(NC(=O)C2(c3ccc4c(c3)OC(F)(F)O4)CC2)nc(-c2c[nH]c(=O)cc2C)c1` [Compound 113], the pEC50 is > 5.70 and the Emax was > 100%.

`Cc1ccc(NC(=O)C2(c3ccc4c(c3)CCO4)CC2)nc1-c1c[nH]c(=O)c(C)c1` [Compound 76]: the pEC50 was > 5.70 and the Emax lay within 50 to 100%.

Consider `Cc1ccc(NC(=O)C2(c3ccc4c(c3)OC(F)(F)O4)CC2)nc1-c1c[nH]c(=O)c(C#N)c1` [Compound 42], for which the pEC50 is > 5.70 and the Emax was 50 to 100%.

Take `COc1ncc(C)cc1-c1nc(NC(=O)C2(c3ccc4c(c3)OC(F)(F)O4)CC2)ccc1C` [Compound 8]: the pEC50 was > 5.70 and the Emax was in the range of 50 to 100%.

For `COc1ncc(-c2nc(NC(=O)C3(c4ccc5c(c4)OC(F)(F)O5)CC3)ccc2C)cc1N` [Compound 9], the pEC50 is > 5.70 and the Emax is > 100%.

Turning to `COc1ccc(-c2cc(C)cc(NC(=O)C3(c4ccc5c(c4)OC(F)(F)O5)CC3)n2)cn1` [Compound 38], the pEC50 is > 5.70 and the Emax is > 100%.

`COc1ncccc1-c1nc(NC(=O)C2(c3ccc4c(c3)OC(F)(F)O4)CC2)ccc1C` [Compound 15]: the pEC50 is > 5.70 and the Emax is > 100%.

For the compound `Cc1cc(-c2nc(NC(=O)C3(c4ccc5c(c4)OC(F)(F)O5)CC3)ccc2C)c(=O)n(CCO)c1` [Compound 116], the pEC50 is > 5.70 and the Emax is > 100%.

`Cc1c[nH]c(=O)c(-c2nc(NC(=O)C3(c4ccc5c(c4)OC(F)(F)O5)CC3)cc(C)c2C)c1` [Compound 91]: the pEC50 is > 5.70 and the Emax is > 100%.

Consider `Cc1ccc(NC(=O)C2(c3ccc4c(c3)OCO4)CC2)nc1-c1ccc(=O)[nH]c1` [Compound 49], for which the pEC50 was > 5.70 and the Emax is 50 to 100%.

For `COc1ccc(-c2nc(NC(=O)C3(c4ccc5c(c4)OC(F)(F)O5)CC3)ccc2C)c(C)n1` [Compound 36], the pEC50 is > 5.70 and the Emax is > 100%.

Take `COc1cccc(-c2nc(NC(=O)C3(c4ccc5c(c4)OC(F)(F)O5)CC3)ccc2C)n1` [Compound 35]: the pEC50 is > 5.70 and the Emax fell in the range of 50 to 100%.

As for `Cc1ccc(NC(=O)C2(c3ccc4c(c3)OC(F)(F)O4)CC2)nc1-c1cc(F)c[nH]c1=O` [Compound 82], the pEC50 is > 5.70 and the Emax is > 100%.

As to `COc1ccc(C2(C(=O)Nc3ccc(C)c(-c4ccnc(OC)c4)n3)CC2)cc1` [Compound 45], the negative logarithm of the EC50 (pEC50) is > 5.70 and the Emax was > 100%.

Take `COc1ccc(C2(C(=O)Nc3ccc(C)c(-c4ccc[nH]c4=O)n3)CC2)cc1` [Compound 10]: the pEC50 was > 5.70 and the Emax was 50 to 100%.

Turning to `Cc1ccc(NC(=O)C2(c3ccc4c(c3)OC(F)(F)O4)CC2)nc1-c1ccn(C)c(=O)c1` [Compound 41], the pEC50 is > 5.70 and the Emax was > 100%.

In the case of `Cc1cc(NC(=O)C2(c3ccc4c(c3)OC(F)(F)O4)CC2)nc(-c2ccn(CCO)c(=O)c2)c1` [Compound 64], the pEC50 is > 5.70 and the Emax is > 100%.

With `Cc1ccc(NC(=O)C2(c3ccc4c(c3)OC(F)(F)O4)CC2)nc1-c1c[nH]c(=O)c(CO)c1` [Compound 1], the pEC50 was > 5.70 and the Emax lay within 50 to 100%.

Regarding `Cc1cc(NC(=O)C2(c3ccc4c(c3)OC(F)(F)O4)CC2)nc(-c2ccc(=O)[nH]c2)c1C#N` [Compound 96], the pEC50 is > 5.70 and the Emax is > 100%.

With `CCOC(=O)NCCn1cc(-c2nc(NC(=O)C3(c4ccc5c(c4)OC(F)(F)O5)CC3)ccc2C)ccc1=O` [Compound 81], the pEC50 is > 5.70 and the Emax was > 100%.

Consider `COc1ncccc1-c1nc(NC(=O)C2(c3ccc4c(c3)OC(F)(F)O4)CC2)cc(C)c1C` [Compound 56], for which the pEC50 was > 5.70 and the Emax is > 100%.

On to `Cc1ccc(NC(=O)C2(c3ccc4c(c3)OC(F)(F)O4)CC2)nc1-c1ccc[nH]c1=O` [Compound 46], for which the pEC50 is > 5.70 and the Emax fell in the range of 50 to 100%.

Take `COc1ccc(-c2nc(NC(=O)C3(c4ccc5c(c4)OC(F)(F)O5)CC3)ccc2C)cn1` [Compound 37]: the pEC50 was > 5.70 and the Emax is > 100%.

Turning to `COc1ncc(C)cc1-c1cc(C)cc(NC(=O)C2(c3ccc4c(c3)OC(F)(F)O4)CC2)n1` [Compound 87], the pEC50 was > 5.70 and the Emax was > 100%.

Regarding `Cc1cc(NC(=O)C2(c3ccc4c(c3)OCC4)CC2)nc(-c2ccc(=O)[nH]c2)c1` [Compound 98], the pEC50 is > 5.70 and the Emax is 50 to 100%.

For the compound `Cc1cc(NC(=O)C2(c3ccc4c(c3)CCO4)CC2)nc(-c2ccc[nH]c2=O)c1` [Compound 69], the pEC50 is > 5.70 and the Emax was 50 to 100%.

Take `Cc1ccc(NC(=O)C2(c3ccc4c(c3)OC(F)(F)O4)CC2)nc1-c1cc[nH]c(=O)c1` [Compound 44]: the pEC50 is > 5.70 and the Emax lay in the range of 50 to 100%.

As to `Cc1cc(NC(=O)C2(c3ccc4c(c3)OC(F)(F)O4)CC2)nc(-c2ccc[nH]c2=O)c1` [Compound 17], the pEC50 is > 5.70 and the Emax was > 100%.

In the case of `COc1ncccc1-c1cc(C)cc(NC(=O)C2(c3ccc4c(c3)OC(F)(F)O4)CC2)n1` [Compound 48], the pEC50 is > 5.70 and the Emax is > 100%.

Regarding `COc1cc(C)c(-c2nc(NC(=O)C3(c4ccc5c(c4)OC(F)(F)O5)CC3)ccc2C)cn1` [Compound 18], the pEC50 is > 5.70 and the Emax was > 100%.

With `Cc1ccc(NC(=O)C2(c3ccc4c(c3)OC(F)(F)O4)CC2)nc1-c1ccc(=O)n(CC(=O)NC#N)c1` [Compound 74], the pEC50 is 5.30 to 5.70 and the Emax was < 50%.

With `COc1ccc(C2(C(=O)Nc3ccc(C)c(-c4cc[nH]c(=O)c4)n3)CC2)cc1` [Compound 26], the pEC50 was > 5.70 and the Emax was in the range of 50 to 100%.

With `Cc1ccc(NC(=O)C2(c3ccc4c(c3)OC(F)(F)O4)CC2)nc1-c1cc[nH]c(=O)c1Cl` [Compound 86], the negative logarithm of the EC50 (pEC50) is > 5.70 and the Emax is > 100%.

`Cc1ccc(NC(=O)C2(c3ccc4c(c3)CCO4)CC2)nc1-c1ccc(=O)[nH]c1` [Compound 78]: the pEC50 is > 5.70 and the Emax was 50 to 100%.

Consider `COc1cc(-c2nc(NC(=O)C3(c4ccc5c(c4)OC(F)(F)O5)CC3)ccc2C)c[nH]c1=O` [Compound 21], for which the pEC50 is > 5.70 and the Emax lay in the range of 50 to 100%.

In the case of `Cc1cc(NC(=O)C2(c3ccc4c(c3)OC(F)(F)O4)CC2)nc(-c2cc[nH]c(=O)c2)c1` [Compound 19], the pEC50 is > 5.70 and the Emax is > 100%.

Regarding `Cc1ccc(NC(=O)C2(c3ccc4c(c3)OC(F)(F)O4)CC2)nc1-c1c[nH]c(=O)c(Cl)c1` [Compound 25], the pEC50 is > 5.70 and the Emax was > 100%.

As for `COc1ncccc1-c1nc(NC(=O)C2(c3ccc4c(c3)CCO4)CC2)cc(C)c1C` [Compound 100], the pEC50 is > 5.70 and the Emax was > 100%.

On to `Cc1ccc(NC(=O)C2(c3ccc4c(c3)OC(F)(F)O4)CC2)nc1-c1ccc(=O)n(C[C@@H](O)CO)c1` [Compound 79], for which the pEC50 is > 5.70 and the Emax is > 100%.
